Laboratory results taken from US10633417B2 (priority 2013, dated 2020).

How the values were obtained:
[1] = target: rat α9 (Thr56 to Ile) α10 nAChR (Rattus norvegicus, UniProt P43144+Q9JLB5, T86I); type: cell-based
[2] = target: rat α9α10 nAChR (Rattus norvegicus, UniProt P43144+Q9JLB5); settings: cited from earlier work
[3] = tested on: Sprague-Dawley rats; settings: rat, in vivo
[4] = tested on: Sprague Dawley rats; settings: rat, in vivo
[5] = tested on: Sprague-Dawley rats; settings: rat, in vivo; remark: listed apart in the source
[6] = tested on: Sprague-Dawley rats; settings: rat, in vivo; remark: listed apart in the source
[7] = tested on: Sprague Dawley rats; settings: rat, in vivo; remark: listed apart in the source
[8] = target: human α9 (Ile56 to Thr) α10 nAChR (Homo sapiens, UniProt Q9GZZ6+Q9UGM1, I86T); type: cell-based
Chain of human α9 (Ile56 to Thr) α10 nAChR (Q9UGM1 26-479 I86T limits assumed, stated change not applied): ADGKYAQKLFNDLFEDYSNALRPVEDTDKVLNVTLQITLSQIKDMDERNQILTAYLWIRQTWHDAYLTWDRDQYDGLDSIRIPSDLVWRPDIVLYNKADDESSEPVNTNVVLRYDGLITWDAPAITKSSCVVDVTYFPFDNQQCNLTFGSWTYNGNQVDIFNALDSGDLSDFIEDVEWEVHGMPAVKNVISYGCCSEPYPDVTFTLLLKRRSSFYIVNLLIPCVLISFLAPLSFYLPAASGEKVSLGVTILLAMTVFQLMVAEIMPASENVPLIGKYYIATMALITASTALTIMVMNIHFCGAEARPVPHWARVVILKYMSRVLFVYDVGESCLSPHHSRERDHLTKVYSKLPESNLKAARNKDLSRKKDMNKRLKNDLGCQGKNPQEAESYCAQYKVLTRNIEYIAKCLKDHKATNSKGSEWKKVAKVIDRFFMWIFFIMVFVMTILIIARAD
Chain of human α9 (Ile56 to Thr) α10 nAChR (Q9GZZ6 25-450 limits assumed, stated change not applied): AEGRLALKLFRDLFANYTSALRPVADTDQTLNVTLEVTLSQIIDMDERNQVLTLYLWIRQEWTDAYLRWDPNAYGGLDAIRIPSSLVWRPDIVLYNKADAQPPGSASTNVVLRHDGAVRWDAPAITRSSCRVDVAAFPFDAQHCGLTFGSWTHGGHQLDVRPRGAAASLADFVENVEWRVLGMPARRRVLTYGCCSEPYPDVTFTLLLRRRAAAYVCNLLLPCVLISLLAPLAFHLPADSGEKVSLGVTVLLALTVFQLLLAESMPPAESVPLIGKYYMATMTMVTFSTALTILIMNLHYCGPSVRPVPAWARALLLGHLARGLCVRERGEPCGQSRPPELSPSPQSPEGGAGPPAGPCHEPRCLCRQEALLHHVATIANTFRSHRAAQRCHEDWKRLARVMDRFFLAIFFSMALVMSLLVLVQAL

[9] = tested on: Sprague-Dawley rats; settings: rat, in vivo; remark: listed apart in the source

Chain of rat α9α10 nAChR (P43144 26-479 limits assumed): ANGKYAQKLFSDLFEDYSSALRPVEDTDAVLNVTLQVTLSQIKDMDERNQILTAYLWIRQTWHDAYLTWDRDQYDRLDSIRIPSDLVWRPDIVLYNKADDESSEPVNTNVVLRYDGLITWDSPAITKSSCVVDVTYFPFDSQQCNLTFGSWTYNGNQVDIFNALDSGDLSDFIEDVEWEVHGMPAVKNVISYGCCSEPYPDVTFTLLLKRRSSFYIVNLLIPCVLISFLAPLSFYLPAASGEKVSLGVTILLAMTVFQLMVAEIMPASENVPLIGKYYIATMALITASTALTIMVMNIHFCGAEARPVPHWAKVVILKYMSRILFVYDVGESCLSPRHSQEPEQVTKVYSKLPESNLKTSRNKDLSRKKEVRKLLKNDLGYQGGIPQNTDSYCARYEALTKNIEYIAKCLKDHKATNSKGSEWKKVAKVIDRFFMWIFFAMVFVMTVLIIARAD
Chain of rat α9α10 nAChR (Q9JLB5 25-447 limits assumed): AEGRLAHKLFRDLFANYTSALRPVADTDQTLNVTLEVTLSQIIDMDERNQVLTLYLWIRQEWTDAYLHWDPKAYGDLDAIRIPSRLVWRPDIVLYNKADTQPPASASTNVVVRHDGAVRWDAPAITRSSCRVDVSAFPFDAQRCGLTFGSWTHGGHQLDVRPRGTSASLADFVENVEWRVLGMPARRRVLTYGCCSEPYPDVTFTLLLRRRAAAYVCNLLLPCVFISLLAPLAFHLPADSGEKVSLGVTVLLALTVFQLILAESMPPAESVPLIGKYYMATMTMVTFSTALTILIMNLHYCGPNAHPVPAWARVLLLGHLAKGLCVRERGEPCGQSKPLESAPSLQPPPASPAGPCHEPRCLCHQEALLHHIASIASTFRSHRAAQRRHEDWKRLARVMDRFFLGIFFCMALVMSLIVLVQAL
Chain of rat α9 (Thr56 to Ile) α10 nAChR (P43144 26-479 T86I limits assumed, stated change not applied): as the sequence (P43144 26-479 limits assumed) above, with T61I counted along it
Chain of rat α9 (Thr56 to Ile) α10 nAChR (Q9JLB5 25-447 limits assumed, stated change not applied): as the sequence (Q9JLB5 25-447 limits assumed) above

Row | Substance | RgIA potency on rat receptor with Thr56 to Ile in α9 [1] | potency on the human versus rat α9α10 nAChR [2] | efficacy on mechanical hyperalgesia 24 h after injection [3] | pain threshold (mechanical hyperalgesia) 30 min after injection [3] | prevention of OXA-induced mechanical hyperalgesia [3] | burn-induced thermal hyperalgesia (Hargraves method) [4] | thermal hyperalgesia in the FTTI model, acute treatment [4] | activity on mechanical allodynia (von Frey), days 14 and 21 [5] | analgesic effect (von Frey), day 7, 24 h later [5] | prevention of OXA-induced cold allodynia, day 7 [6] | prevention of OXA-induced cold allodynia, day 14 and 21 [6] | mechanical allodynia in the FTTI model, acute treatment [7] | RgIA potency on human receptor with α9 Ile56 to Thr [8] | increase in RgIA potency on human receptor with α9 Ile56 to Thr [8] [log] | analgesic effect in OXA chemotherapy induced neuropathic pain [9]
1 | GCCSDPRCRYRCR [RgIA] | reduction in RgIA potency on the rat receptor to levels found with the human receptor | ~170 fold | still significant | acutely increased pain threshold | significantly prevented | significantly reduced | effectively reduces | active | not observed | able to prevent OXA-induced cold allodynia | able to prevent OXA-induced cold allodynia | effectively reduces | increase in RgIA potency on the human receptor to levels found in rat | 2 | significant analgesic effects on days 14 and 21
2 | Vc1.1 |  | significantly less potent |  |  |  |  |  |  |  |  |  |  |  |  | 
